Source: patent US10308615B2, “Heterocyclic compounds as inhibitors of Vanin-1 enzyme” (Pfizer Inc., priority 2015, dated 2019)
pIC50: −log10 of the molar value.

biological target: T1, human vanin-1 (Homo sapiens (Human), UniProt O95497); experiment: Human Vanin-1 Enzyme Assay 1; type: biochemical; conditions: 25 pM human vanin-1, 50 uM pantetheine 7-amino-4-trifluoromethylcoumarin, 30 min preincubation, 60 min
Experimental: Human Vanin-1 Enzyme Assay 1.
(§1) The in vitro assay measures enzymatic cleavage of the fluorescently-labeled vanin substrate, pantetheine 7-amino-4-trifluoromethylcoumarin, by human vanin-1.
(§2) The vanin-1 protein was prepared in-house from a construct expressing the extracellular domain of human vanin-1 (GenBank ID NM_004666) preceded N-terminally by the honey bee melittin signal peptide, a GSG linker sequence, a His6X tag and a FLAG tag. The secreted, soluble enzyme was purified from the conditioned medium from a CHO cell line stably expressing the resulting protein. Enzyme purification was performed through sequential Ni NTA and size-exclusion chromatography steps.
The test inhibitors were solubilized in DMSO to a stock concentration of 30 mM. On the day of the assay, dose response plates were prepared by diluting the inhibitors in DMSO at compound concentration 200-fold the final in-assay concentration. Intermediate concentrations were prepared by diluting in DMSO in a four-fold series for a total of 11 data points.
To prepare a working solution of human vanin-1, the enzyme was diluted to 33.3 pM in the assay buffer consisting of 50 mM Tris-HCl pH=8.0, 50 mM KCl, 0.005% Brij-35 and […] cysteamine. To begin the assay 100 nL was transferred from the compound plate to the assay plate. Next, 15 μL of the vanin-1 working solution were transferred to the assay plate. The inhibitor and enzyme were incubated at room temperature for 30 minutes. The enzyme reaction was then initiated by the addition of 5 μL of 200 μM pantetheine 7-amino-4-trifluoromethylcoumarin prepared in assay buffer. The final concentrations in the assay were 25 pM human vanin-1 and 50 uM substrate. The final concentration of DMSO was 0.5%. The assay plates were incubated for 60 minutes and before they were read on a Perkin Elmer EnVision Model 2103 using a 405 nm excitation wavelength and a 510 nm emission wavelength for detection.

T1 sequence (O95497 22-491): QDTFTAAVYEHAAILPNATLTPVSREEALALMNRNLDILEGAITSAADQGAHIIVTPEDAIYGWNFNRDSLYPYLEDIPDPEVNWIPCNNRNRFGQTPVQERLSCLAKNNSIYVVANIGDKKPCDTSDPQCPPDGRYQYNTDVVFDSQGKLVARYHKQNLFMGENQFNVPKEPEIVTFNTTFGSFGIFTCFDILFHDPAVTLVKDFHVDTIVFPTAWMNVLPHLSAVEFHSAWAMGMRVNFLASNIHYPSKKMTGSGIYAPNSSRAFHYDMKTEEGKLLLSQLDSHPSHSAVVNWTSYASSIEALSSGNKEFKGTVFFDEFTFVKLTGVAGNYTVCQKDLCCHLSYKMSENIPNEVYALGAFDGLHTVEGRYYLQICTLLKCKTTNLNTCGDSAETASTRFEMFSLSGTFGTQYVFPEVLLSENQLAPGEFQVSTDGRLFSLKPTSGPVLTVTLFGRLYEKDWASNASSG

First: O=C(O)c1cccc(C(=O)c2cnc(NC3(c4cncnc4)CC3)nc2)c1 [Example 148, 3-[(2-{[1-(pyrimidin-5-yl)cyclopropyl]amino}pyrimidin-5-yl)carbonyl] benzoic acid]
Second: NC(=O)c1cccc(C(=O)c2cnc(NC3(c4cncnc4)CC3)nc2)c1 [Example 149, 3-[(2-{[1-(pyrimidin-5-yl)cyclopropyl]amino}pyrimidin-5-yl)carbonyl] benzamide]
The pIC50 of the first is 1.00 log units lower: 6.59 for the first, 7.59 for the second. The second is the more potent here.

First: O=C(O)Cc1cccc(C(=O)c2cnc(NC3(c4cncnc4)CC3)nc2)c1 [Example 150, {3-[(2-{[1-(pyrimidin-5-yl)cyclopropyl]amino}pyrimidin-5-yl)carbonyl]phenyl}acetic acid]
Second: COc1ccc(C(=O)c2cnc(NC3(c4cncnc4)CC3)nc2)cc1C#N [Example 161, 2-methoxy-5-[(2-{[1-(pyrimidin-5-yl)cyclopropyl]amino}pyrimidin-5-yl)carbonyl] benzonitrile]
The pIC50 of the first is 1.89 log units higher: 7.62 for the first, 5.73 for the second.

Compared with N#Cc1cccc(C(=O)c2cnc(NC3(c4ccc(C(N)=O)nc4)CC3)nc2)c1 [Example 152, 5-(1-{[5-(3-cyanobenzoyl)pyrimidin-2-yl]amino}cyclo-propyl)pyridine-2-carboxamide], N#Cc1cccc(C(=O)c2cnc(NC3(c4ccc(O)nc4)CC3)nc2)c1 [Example 153, 3-[(2-{[1-(6-hydroxypyridin-3-yl)cyclopropyl]amino}pyrimidin-5-yl)carbonyl] benzonitrile] is 0.60 log units lower in pIC50: 7.11 for the first, 6.51 for the second.

N#Cc1cc(Cl)cc(C(=O)c2cnc(NC3(c4cncnc4)CC3)nc2)c1 [Example 146, 3-chloro-5-[(2-{[1-(pyrimidin-5-yl)cyclopropyl]amino}pyrimidin-5-yl)carbonyl] benzonitrile] and N#Cc1cccc(C(=O)c2cnc(NC3(c4cnc(N)cn4)CC3)nc2)c1 [Example 151, 3-[(2-{[1-(5-aminopyrazin-2-yl)cyclopropyl]amino}pyrimidin-5-yl)carbonyl] benzonitrile] are within 0.2 log units of each other in pIC50: 7.59 for the first, 7.56 for the second.

N#Cc1cccc(C(=O)c2cnc(NCC3CCC(O)CC3)nc2)c1 (stereo not shown) [Example 162, 3-[(2-{[(4-hydroxycyclohexyl)methyl]amino}pyrimidin-5-yl)carbonyl] benzonitrile] and NC(=O)c1cccc(C(=O)c2cnc(NC3(c4cnccn4)CC3)nc2)c1 [Example 147, 3-[(2-{[1-(pyrazin-2-yl)cyclopropyl]amino}pyrimidin-5-yl)carbonyl] benzamide] are within 0.2 log units of each other in pIC50: 7.14 for the first, 7.25 for the second.

biological target: T1, human vanin-1; experiment: Human Vanin-1 Enzyme Assay 3; type: biochemical; conditions: 2 nM human vanin-1, 10 uM substrate, 15 min
Experimental: Human Vanin-1 Enzyme Assay 3.
as §1, §2
On the day of the assay, dose response plates were prepared by diluting the inhibitors in DMSO at compound concentration 100-fold the final in-assay concentration. Concentration series were prepared by serially diluting in DMSO in a two-fold series for a total of 11 data points. Intermediate compound plates containing compound in 10% DMSO were then created by diluting the compounds 10-fold in assay buffer consisting of 50 mM Tris-HCl pH=8.0, 50 mM KCl, 0.005% Brij-35 and 1.5 mM cysteamine. To begin the assay 3 μL were transferred from the intermediate compound plate to the assay plate.
A working solution of human vanin-1 was prepared by diluting the enzyme stock to 2.5 nM in assay buffer. Next, 24 μL of the vanin-1 working solution were transferred to the assay plate. The enzyme reaction was then initiated by the addition of 3 μL of 100 μM pantetheine 7-amino-4-trifluoromethylcoumarin prepared in 5 uM acetic acid. The final concentrations in the assay were 2 nM human vanin-1 and 10 uM substrate. The final concentration of DMSO was 1%. The assay plates were incubated at room temperature for 15 minutes and before they were read on a Tecan Safire using a 405 nm excitation wavelength and a 505 nm emission wavelength for detection.

Compared with N#Cc1cccc(C(=O)c2cnc(NC3(c4cccnc4)CC3)nc2)c1 [Example 2, 3-[(2-{[1-(pyridin-3-yl)cyclopropyl]amino}pyrimidin-5-yl)carbonyl]benzonitrile], O=C(c1cnc(NC2(c3cccnc3)CC2)nc1)c1cccc(C(F)(F)F)c1 [Example 71, (2-{[1-(pyridin-3-yl)cyclopropyl]amino}pyrimidin-5-yl)[3-(trifluoromethyl)phenyl]methanone] is 1.06 log units lower in pIC50: 8.68 for the first, 7.62 for the second.

Compared with O=C(c1cnc(NCc2ccnnc2)nc1)c1cccc(C(F)(F)F)c1 [Example 122, {2-[(pyridazin-4-ylmethyl)amino]pyrimidin-5-yl}[3-(trifluoromethyl)phenyl]methanone], N#Cc1ccc(CNc2ncc(C(=O)c3cccc(C(F)(F)F)c3)cn2)cc1 [Example 76, 4-[({5-[3-(trifluoromethyl)benzoyl]pyrimidin-2-yl}amino)methyl] benzonitrile] is 0.73 log units higher in pIC50: 6.22 for the first, 6.95 for the second.

COc1ccc(COc2ncc(C(=O)c3cccc(C(F)(F)F)c3)cn2)cc1 [Example 157, {2-[(4-methoxybenzyl)oxy]pyrimidin-5-yl}[3-(trifluoromethyl)phenyl]methanone] and O=C(c1cnc(OCc2ccc(OC(F)(F)F)cc2)nc1)c1cccc(C(F)(F)F)c1 [Example 158, (2-{[4-(trifluoromethoxy)benzyl]oxy}pyrimidin-5-yl)[3-(trifluoromethyl)phenyl]methanone] cannot be ordered by pIC50: less than 5.63 for the first, less than 5.54 for the second.

Going from O=C(c1cnc(NCc2ccc(F)cc2)nc1)c1cccc(Cl)c1 [Example 36, (3-chlorophenyl){2-[(4-fluorobenzyl)amino]pyrimidin-5-yl}methanone] to O=C(c1ccc(Cl)cc1)c1cnc(NCc2ccc(F)cc2)nc1 [Example 52, (4-chlorophenyl){2-[(4-fluorobenzyl)amino]pyrimidin-5-yl}methanone], the pIC50 falls from 7.51 to 6.77 (0.74 log units).

Going from COc1ccc(C(=O)c2cnc(NCc3ccccn3)nc2)cc1 [Example 60, (4-methoxyphenyl) {2-[(pyridin-2-ylmethyl)amino]pyrimidin-5-yl}methanone] to COc1ccc(C(=O)c2cnc(NCc3ccccc3)nc2)cc1 [Example 74, [2-(benzylamino)pyrimidin-5-yl](4-methoxyphenyl) methanone], the pIC50 falls from 7.05 to 6.13 (0.92 log units).

First: N#Cc1ccc(CNc2ncc(C(=O)c3ccc(C(F)(F)F)cc3)cn2)cc1 [Example 50, 4-[({5-[4-(trifluoromethyl)benzoyl]pyrimidin-2-yl}amino)methyl] benzonitrile]
Second: O=C(c1ccc(C(F)(F)F)cc1)c1cnc(NCc2ccc(F)cc2)nc1 [Example 54, {2-[(4-fluorobenzyl)amino]pyrimidin-5-yl}[4-(trifluoromethyl)phenyl]methanone]
The pIC50 of the first is 0.76 log units lower: 6.69 for the first, 7.45 for the second.

COc1ccc(CNc2ncc(C(=O)c3ccc(Cl)cc3)cn2)cc1 [Example 63, (4-chlorophenyl){2-[(4-methoxybenzyl)amino]pyrimidin-5-yl}methanone] and COc1ccc(CNc2ncc(C(=O)c3ccc(OC)cc3)cn2)cc1 [Example 53, {2-[(4-methoxybenzyl)amino]pyrimidin-5-yl}(4-methoxyphenyl) methanone] are within 0.2 log units of each other in pIC50: 6.24 for the first, 6.20 for the second.

Going from O=C(c1ccc(Cl)cc1)c1cnc(NCc2ccc(Cl)cc2)nc1 [Example 57, {2-[(4-chlorobenzyl)amino]pyrimidin-5-yl}(4-chlorophenyl) methanone] to COc1ccc(CNc2ncc(C(=O)c3ccc(C(F)(F)F)cc3)cn2)cc1 [Example 55, {2-[(4-methoxybenzyl)amino]pyrimidin-5-yl}[4-(trifluoromethyl)phenyl]methanone], the pIC50 rises from 6.05 to greater than 7.78.

Going from COc1ccc(C(=O)c2cnc(NCc3cccc(C#N)c3)nc2)cc1 [Example 77, 3-({[5-(4-methoxybenzoyl)pyrimidin-2-yl]amino}methyl) benzonitrile] to COc1ccc(C(=O)c2cnc(NCc3ccc(OC(F)(F)F)cc3)nc2)cc1 [Example 75, (4-methoxyphenyl) (2-{[4-(trifluoromethoxy)benzyl]amino}pyrimidin-5-yl)methanone], the pIC50 rises from 6.00 to 6.21 (0.21 log units). The second is the more potent here.

First: O=C(c1cnc(NCc2ccc(OC(F)(F)F)cc2)nc1)c1cccc(C(F)(F)F)c1 [Example 58, (2-{[4-(trifluoromethoxy)benzyl]amino}pyrimidin-5-yl)[3-(trifluoromethyl)phenyl]methanone]
Second: O=C(c1cnc(NCc2ccc(Cl)cc2F)nc1)c1cccc(C(F)(F)F)c1 [Example 61, {2-[(4-chloro-2-fluorobenzyl)amino]pyrimidin-5-yl}[3-(trifluoromethyl)phenyl]methanone]
The pIC50 of the first is 0.72 log units lower: 6.88 for the first, 7.60 for the second. The second is the more potent here.

With O=C(c1ccc(C(F)(F)F)cc1)c1cnc(NCc2cccnc2)nc1 [Example 51, {2-[(pyridin-3-ylmethyl)amino]pyrimidin-5-yl}[4-(trifluoromethyl)phenyl]methanone] the pIC50 was 7.35.
